System: MV-4-11 cells
Test: Gene expression microarray analysis (Affymetrix PrimeView) and GSEA
Type: cell-based, human
Parameters: RFU PODN (11730768_x_at) / Fold change /veh PODN (11730768_x_at) / RFU LINC00158 (11744669_a_at) / Fold change /veh LINC00158 (11744669_a_at) / RFU DUSP10 (11751237_a_at) / Fold change /veh DUSP10 (11751237_a_at) / RFU ID3 (11757404_x_at) / Fold change /veh ID3 (11757404_x_at) / RFU PLEKHG5 (11737974_s_at) / Fold change /veh PLEKHG5 (11737974_s_at) / RFU LRRC4B (11730491_at) / Fold change /veh LRRC4B (11730491_at) / RFU GIMAP4 (11747438_a_at) / Fold change /veh GIMAP4 (11747438_a_at) / RFU KRT8 (11758183_x_at) / Fold change /veh KRT8 (11758183_x_at) / RFU CNN1 (11734310_a_at) / Fold change /veh CNN1 (11734310_a_at) / RFU VPS37D (11726825_at) / Fold change /veh VPS37D (11726825_at) / RFU C10orf10 (11716522_x_at) / Fold change /veh C10orf10 (11716522_x_at) / RFU KIR2DL2 /// KIR2DL4 /// KIR2DL5A /// KIR2DL5B /// KIR2DS1 /// KIR2DS2 /// KIR2DS3 /// KIR2DS4 /// KIR3DL3 /// KIR3DL3 /// KIR3DS1 (11738374_at) / Fold change /veh KIR2DL2 /// KIR2DL4 /// KIR2DL5A /// KIR2DL5B /// KIR2DS1 /// KIR2DS2 /// KIR2DS3 /// KIR2DS4 /// KIR3DL3 /// KIR3DL3 /// KIR3DS1 (11738374_at) / RFU C1QL1 (11718748_at) / Fold change /veh C1QL1 (11718748_at) / RFU TMPRSS4 (11747572_a_at) / Fold change /veh TMPRSS4 (11747572_a_at) / RFU HAMP (11756126_x_at) / Fold change /veh HAMP (11756126_x_at) / RFU RNFT2 (11725882_a_at) / Fold change /veh RNFT2 (11725882_a_at) / RFU NR4A2 (11747474_a_at) / Fold change /veh NR4A2 (11747474_a_at) / RFU ABCC12 (11746883_a_at) / Fold change /veh ABCC12 (11746883_a_at) / RFU TMEM136 (11760407_x_at) / Fold change /veh TMEM136 (11760407_x_at) / RFU CLDN22 /// WWC2 (11732394_at) / Fold change /veh CLDN22 /// WWC2 (11732394_at) / RFU HLA-DPB1 (11760878_x_at) / Fold change /veh HLA-DPB1 (11760878_x_at) / RFU SPINT1 (11716480_a_at) / Fold change /veh SPINT1 (11716480_a_at) / RFU GAP43 (11754022_s_at) / Fold change /veh GAP43 (11754022_s_at) / RFU A4GNT (11735810_at) / Fold change /veh A4GNT (11735810_at) / RFU PRB3 (11715151_x_at) / Fold change /veh PRB3 (11715151_x_at) / RFU TUBB4B (11761932_at) / Fold change /veh TUBB4B (11761932_at) / RFU CAPN14 (11732068_a_at) / Fold change /veh CAPN14 (11732068_a_at) / RFU TMCC2 (11721928_a_at) / Fold change /veh TMCC2 (11721928_a_at) / RFU IRGQ (11745062_a_at) / Fold change /veh IRGQ (11745062_a_at) / RFU FAM174B (11720279_a_at) / Fold change /veh FAM174B (11720279_a_at) / RFU TMPRSS4 (11748680_a_at) / Fold change /veh TMPRSS4 (11748680_a_at) / RFU FAM212B (11763350_a_at) / Fold change /veh FAM212B (11763350_a_at) / RFU PLEKHG5 (11743358_a_at) / Fold change /veh PLEKHG5 (11743358_a_at) / RFU ZSCAN30 (11745921_a_at) / Fold change /veh ZSCAN30 (11745921_a_at) / RFU CMKLR1 (11741424_a_at) / Fold change /veh CMKLR1 (11741424_a_at) / RFU LOC101060620 /// MAPK8IP1 (11723275_at) / Fold change /veh LOC101060620 /// MAPK8IP1 (11723275_at) / RFU SPTSSB (11747773_x_at) / Fold change /veh SPTSSB (11747773_x_at) / RFU PRSS12 (11739890_at) / Fold change /veh PRSS12 (11739890_at) / RFU BIN1 (11741810_x_at) / Fold change /veh BIN1 (11741810_x_at) / RFU WNT11 (11732464_a_at) / Fold change /veh WNT11 (11732464_a_at) / RFU C10orf10 (11716521_a_at) / Fold change /veh C10orf10 (11716521_a_at) / RFU C5orf56 (11738089_at) / Fold change /veh C5orf56 (11738089_at) / RFU CYB561 (11721691_x_at) / Fold change /veh CYB561 (11721691_x_at) / RFU ANKRD19P (11752326_a_at) / Fold change /veh ANKRD19P (11752326_a_at) / RFU OR2T12 /// OR2T33 /// OR2T8 (11738714_s_at) / Fold change /veh OR2T12 /// OR2T33 /// OR2T8 (11738714_s_at) / RFU VCAN (11748164_a_at) / Fold change /veh VCAN (11748164_a_at) / RFU JSRP1 (11732532_at) / Fold change /veh JSRP1 (11732532_at) / RFU KRTAP10-11 (11738290_x_at) / Fold change /veh KRTAP10-11 (11738290_x_at) / RFU MYO3A (11730013_a_at) / Fold change /veh MYO3A (11730013_a_at) / RFU EBF3 (11725865_a_at) / Fold change /veh EBF3 (11725865_a_at) / RFU CAMK2N1 (11719241_x_at) / Fold change /veh CAMK2N1 (11719241_x_at) / RFU C5orf56 (11738088_a_at) / Fold change /veh C5orf56 (11738088_a_at) / RFU OLFML3 (11715873_a_at) / Fold change /veh OLFML3 (11715873_a_at) / RFU LOC100653217 /// NTM (11731650_a_at) / Fold change /veh LOC100653217 /// NTM (11731650_a_at) / RFU MAPK11 (11762145_a_at) / Fold change /veh MAPK11 (11762145_a_at) / RFU FIZ1 (11724087_x_at) / Fold change /veh FIZ1 (11724087_x_at) / RFU OASL (11726364_x_at) / Fold change /veh OASL (11726364_x_at) / RFU SOX15 (11748057_x_at) / Fold change /veh SOX15 (11748057_x_at) / RFU CD79A (11719716_a_at) / Fold change /veh CD79A (11719716_a_at) / RFU HIST1H1D (11736915_at) / Fold change /veh HIST1H1D (11736915_at) / RFU CASKIN2 (11723855_a_at) / Fold change /veh CASKIN2 (11723855_a_at) / RFU LOC730098 (11760151_x_at) / Fold change /veh LOC730098 (11760151_x_at) / RFU OR4N2 (11742367_at) / Fold change /veh OR4N2 (11742367_at) / RFU PRRT2 (11749266_a_at) / Fold change /veh PRRT2 (11749266_a_at) / RFU SNX32 (11753110_a_at) / Fold change /veh SNX32 (11753110_a_at) / RFU CDHR5 (11726645_a_at) / Fold change /veh CDHR5 (11726645_a_at) / RFU RCAN1 (11760418_a_at) / Fold change /veh RCAN1 (11760418_a_at) / RFU FAM167A (11723789_a_at) / Fold change /veh FAM167A (11723789_a_at) / RFU FAM26E (11764081_at) / Fold change /veh FAM26E (11764081_at) / RFU ISYNA1 (11749810_s_at) / Fold change /veh ISYNA1 (11749810_s_at) / RFU ACY1 (11761880_at) / Fold change /veh ACY1 (11761880_at) / RFU 11764098_at / Fold change /veh 11764098_at / RFU SAMD14 (11745864_x_at) / Fold change /veh SAMD14 (11745864_x_at) / RFU NPB (11741838_a_at) / Fold change /veh NPB (11741838_a_at) / RFU TMPRSS6 (11731388_a_at) / Fold change /veh TMPRSS6 (11731388_a_at) / RFU KRTAP10-2 (11738614_at) / Fold change /veh KRTAP10-2 (11738614_at) / RFU ARHGAP8 /// PRR5-ARHGAP8 (11727945_x_at) / Fold change /veh ARHGAP8 /// PRR5-ARHGAP8 (11727945_x_at) / RFU KRTAP5-7 /// NADSYN1 (11734609_at) / Fold change /veh KRTAP5-7 /// NADSYN1 (11734609_at) / RFU RASL12 (11751679_a_at) / Fold change /veh RASL12 (11751679_a_at) / RFU CDKN2B (11736163_a_at) / Fold change /veh CDKN2B (11736163_a_at) / RFU PRF1 (11729649_at) / Fold change /veh PRF1 (11729649_at) / RFU, ZNF638 /// ZNF638-IT1 / Fold change vs veh, ZNF638 /// ZNF638-IT1 / RFU, PANK3 / Fold change vs veh, PANK3 / RFU, SH3YL1 / Fold change vs veh, SH3YL1 / RFU, ZEB2 / Fold change vs veh, ZEB2 / RFU, NRIP1 / Fold change vs veh, NRIP1 / RFU, PTTG1IP / Fold change vs veh, PTTG1IP / RFU, CAPN2 / Fold change vs veh, CAPN2 / RFU, MED14 / Fold change vs veh, MED14 / RFU, SNORA58 / Fold change vs veh, SNORA58 / RFU, C1orf63 / Fold change vs veh, C1orf63 / RFU, LRRFIP1 / Fold change vs veh, LRRFIP1 / RFU, NDUFAF7 / Fold change vs veh, NDUFAF7 / RFU, SLC12A2 / Fold change vs veh, SLC12A2 / RFU, IBTK / Fold change vs veh, IBTK / RFU, ESF1 / Fold change vs veh, ESF1 / Fold change vs veh, TMEM50B / RFU, TAOK1 / Fold change vs veh, TAOK1 / RFU, ACBD3 / Fold change vs veh, ACBD3 / RFU, TMA16 / Fold change vs veh, TMA16 / RFU, RWDD3 / Fold change vs veh, RWDD3 / RFU, BCAT1 / Fold change vs veh, BCAT1 / RFU, EDEM3 / Fold change vs veh, EDEM3 / RFU, TMEM33 / Fold change vs veh, TMEM33 / RFU, WDR75 / Fold change vs veh, WDR75 / RFU, AHCTF1 / Fold change vs veh, AHCTF1 / RFU, TFRC / Fold change vs veh, TFRC / RFU, ZDHHC17 / Fold change vs veh, ZDHHC17 / RFU, NOM1 / Fold change vs veh, NOM1 / RFU, ARL8B / Fold change vs veh, ARL8B / RFU, ZBTB11 / Fold change vs veh, ZBTB11 / RFU, TAMM41 / Fold change vs veh, TAMM41 / RFU, KIAA1704 /// LOC100996395 / Fold change vs veh, KIAA1704 /// LOC100996395 / RFU, ING1 / Fold change vs veh, ING1 / RFU, TRMT61B / Fold change vs veh, TRMT61B / RFU, FUBP3 / Fold change vs veh, FUBP3 / RFU, TP53 / Fold change vs veh, TP53 / RFU, TNKS2 / Fold change vs veh, TNKS2 / RFU, ZFP14 / Fold change vs veh, ZFP14 / RFU, ACTR2 / Fold change vs veh, ACTR2 / RFU, PPP3R1 / Fold change vs veh, PPP3R1 / RFU, PIK3R1 / Fold change vs veh, PIK3R1 / RFU, HNRNPA1 / Fold change vs veh, HNRNPA1 / RFU, RNF170 / Fold change vs veh, RNF170 / RFU, ZNF28 / Fold change vs veh, ZNF28 / RFU, RNGTT / Fold change vs veh, RNGTT / RFU, OGT / Fold change vs veh, OGT / RFU, BRD1 / Fold change vs veh, BRD1 / RFU, MARS / Fold change vs veh, MARS / RFU, ZNF655 / Fold change vs veh, ZNF655 / RFU, FAHD1 / Fold change vs veh, FAHD1 / RFU, BDP1 / Fold change vs veh, BDP1 / RFU, LRRCC1 / Fold change vs veh, LRRCC1 / RFU, ARID1A / Fold change vs veh, ARID1A / RFU, ZNF146 / Fold change vs veh, ZNF146 / RFU, ZNF330 / Fold change vs veh, ZNF330 / RFU, GPN3 / Fold change vs veh, GPN3 / RFU, C9orf123 / Fold change vs veh, C9orf123 / RFU, N4BP2L2 / Fold change vs veh, N4BP2L2 / RFU, ARFIP1 / Fold change vs veh, ARFIP1 / RFU, FAM179B / Fold change vs veh, FAM179B / RFU, BCL10 / Fold change vs veh, BCL10 / RFU, UHRF1BP1L / Fold change vs veh, UHRF1BP1L / RFU, BET1 / Fold change vs veh, BET1 / RFU, CNOT2 / Fold change vs veh, CNOT2 / RFU, ZNF268 / Fold change vs veh, ZNF268 / Fold change vs veh, ZNF507 / RFU, DGCR2 / Fold change vs veh, DGCR2 / RFU, WDSUB1 / Fold change vs veh, WDSUB1 / Fold change vs veh, HSP90B1 /// MIR3652 / RFU, ADSS / Fold change vs veh, ADSS / RFU, GK / Fold change vs veh, GK / RFU, ZNF148 / Fold change vs veh, ZNF148 / RFU, TAF9 / Fold change vs veh, TAF9 / RFU, SLC1A5 / Fold change vs veh, SLC1A5 / RFU, SLMO2 / Fold change vs veh, SLMO2 / RFU, ABCC4 / Fold change vs veh, ABCC4 / RFU, LOC101060439 /// RAP1B / Fold change vs veh, LOC101060439 /// RAP1B / RFU, RFX7 / Fold change vs veh, RFX7 / RFU, GTPBP10 / Fold change vs veh, GTPBP10 / RFU, CNEP1R1 / Fold change vs veh, CNEP1R1 / RFU, BIVM-ERCC5 /// ERCC5 / Fold change vs veh, BIVM-ERCC5 /// ERCC5 / RFU, ILF3 / Fold change vs veh, ILF3 / RFU 11762660_at / Fold change /veh 11762660_at / RFU VCAN (11757783_s_at) / Fold change /veh VCAN (11757783_s_at) / RFU DDX43 (11728927_at) / Fold change /veh DDX43 (11728927_at) / RFU KRT8 (11758188_x_at) / Fold change /veh KRT8 (11758188_x_at) / RFU NKD1 (11759106_at) / Fold change /veh NKD1 (11759106_at) / RFU SRD5A1 (11742802_a_at) / Fold change /veh SRD5A1 (11742802_a_at) / RFU TPSAB1 /// TPSB2 (11721975_s_at) / Fold change /veh TPSAB1 /// TPSB2 (11721975_s_at) / RFU GSTM3 (11746129_a_at) / Fold change /veh GSTM3 (11746129_a_at) / RFU IL23R (11737362_x_at) / Fold change /veh IL23R (11737362_x_at) / RFU TMEM51 (11727254_a_at) / Fold change /veh TMEM51 (11727254_a_at) / RFU PIWIL2 (11732686_x_at) / Fold change /veh PIWIL2 (11732686_x_at) / RFU ORM1 (11744905_x_at) / Fold change /veh ORM1 (11744905_x_at) / RFU CCDC152 (11743942_at) / Fold change /veh CCDC152 (11743942_at) / RFU ECM1 (11717891_a_at) / Fold change /veh ECM1 (11717891_a_at) / RFU IL23R (11748794_a_at) / Fold change /veh IL23R (11748794_a_at) / RFU TNFAIP8L3 (11732012_x_at) / Fold change /veh TNFAIP8L3 (11732012_x_at) / RFU MBOAT4 (11741988_at) / Fold change /veh MBOAT4 (11741988_at) / RFU 11764193_at / Fold change /veh 11764193_at / RFU TMEM53 (11763286_at) / Fold change /veh TMEM53 (11763286_at) / RFU MAGEB2 (11727129_at) / Fold change /veh MAGEB2 (11727129_at) / RFU TMEM200A (11744735_a_at) / Fold change /veh TMEM200A (11744735_a_at) / RFU CCDC152 (11751479_a_at) / Fold change /veh CCDC152 (11751479_a_at) / RFU FAM211A (11726209_a_at) / Fold change /veh FAM211A (11726209_a_at) / RFU RGS16 (11746705_a_at) / Fold change /veh RGS16 (11746705_a_at) / RFU VCAN (11755009_s_at) / Fold change /veh VCAN (11755009_s_at) / RFU RHOB (11743442_s_at) / Fold change /veh RHOB (11743442_s_at) / RFU RGS16 (11720943_a_at) / Fold change /veh RGS16 (11720943_a_at) / RFU RGS16 (11720944_at) / Fold change /veh RGS16 (11720944_at) / RFU, VPS4B / Fold change vs veh, VPS4B / RFU, CREB1 / Fold change vs veh, CREB1 / RFU, DNAJC13 / Fold change vs veh, DNAJC13 / RFU, GNAQ / Fold change vs veh, GNAQ / RFU, CDK5R1 / Fold change vs veh, CDK5R1 / RFU, ZRANB3 / Fold change vs veh, ZRANB3 / RFU, CUL4A / Fold change vs veh, CUL4A / RFU, CCNY / Fold change vs veh, CCNY / RFU, UFL1 / Fold change vs veh, UFL1 / RFU, COG3 / Fold change vs veh, COG3 / RFU, DIAPH2 / Fold change vs veh, DIAPH2 / RFU, SKA2 / Fold change vs veh, SKA2 / RFU, AFF3 / Fold change vs veh, AFF3 / RFU, LMF1 / Fold change vs veh, LMF1 / RFU, IPO11 / Fold change vs veh, IPO11 / RFU, DFFB / Fold change vs veh, DFFB / RFU, FOXP1 / Fold change vs veh, FOXP1 / RFU, CARD8 / Fold change vs veh, CARD8 / RFU, STRN3 / Fold change vs veh, STRN3 / RFU, ADK / Fold change vs veh, ADK / RFU, RASSF2 / Fold change vs veh, RASSF2 / RFU, WIPF1 / Fold change vs veh, WIPF1 / RFU, LARP1B / Fold change vs veh, LARP1B / RFU, RASA1 / Fold change vs veh, RASA1 / RFU, RB1 / Fold change vs veh, RB1 / RFU, PPFIA1 / Fold change vs veh, PPFIA1 / RFU, MAT2A / Fold change vs veh, MAT2A / RFU, CCT5 / Fold change vs veh, CCT5 / RFU, WDR92 / Fold change vs veh, WDR92 / RFU, CUX1 / Fold change vs veh, CUX1 / RFU, TTC7A / Fold change vs veh, TTC7A / RFU, TMEM135 / Fold change vs veh, TMEM135 / RFU, DEPTOR / Fold change vs veh, DEPTOR / RFU, CPM / Fold change vs veh, CPM / RFU, DNAJB6 / Fold change vs veh, DNAJB6 / RFU, CACNA2D3 / Fold change vs veh, CACNA2D3 / RFU, DTX4 / Fold change vs veh, DTX4 / RFU, TFCP2 / Fold change vs veh, TFCP2 / RFU, GMCL1 /// GMCL1P1 / Fold change vs veh, GMCL1 /// GMCL1P1 / RFU, AEBP2 / Fold change vs veh, AEBP2 / RFU, SNHG1 /// SNORD22 /// SNORD25 /// SNORD26 /// SNORD27 /// SNORD28 /// SNORD29 /// SNORD31 / Fold change vs veh, SNHG1 /// SNORD22 /// SNORD25 /// SNORD26 /// SNORD27 /// SNORD28 /// SNORD29 /// SNORD31 / Fold change (Aza/veh), C12orf56 (ProbeSet 11735607_a_at) / Fold change (ACY-1035/veh), C12orf56 (ProbeSet 11735607_a_at) / Fold change (Aza/veh), FGFR1OP (ProbeSet 11751329_s_at) / Fold change (ACY-1035/veh), FGFR1OP (ProbeSet 11751329_s_at) / Fold change (Aza/veh), VPS36 (ProbeSet 11739960_a_at) / Fold change (ACY-1035/veh), VPS36 (ProbeSet 11739960_a_at) / RFU SYPL1 (11715823_x_at) / Fold change /veh SYPL1 (11715823_x_at) / RFU IGFBP7 (11715501_s_at) / Fold change /veh IGFBP7 (11715501_s_at) / RFU REEP3 (11722064_at) / Fold change /veh REEP3 (11722064_at) / RFU IGLL1 (11728026_x_at) / Fold change /veh IGLL1 (11728026_x_at): dose or concentration left out as unconfirmed
Settings: MV-4-11 cells, 48 hours

Nc1ccc(-c2cccs2)cc1NC(=O)c1ccc2c(c1)cc(C1CC1)n2CCN1CCOCC1 [ACY-1035]
Fold change /veh TMEM200A (11744735_a_at): 1.19

Reference: article PMC5218480 (PLoS ONE, 2017)
